# Data taken from publication PMC6009910, “Tertiary amine derivatives of chlorochalcone as acetylcholinesterase (AChE) and buthylcholinesterase (BuChE) inhibitors: the influence of chlorine, alkyl amine side chain and α,β-unsaturated ketone group” (Journal of Enzyme Inhibition and Medicinal Chemistry, 2016).
# Where “and” joins values, the source holds several entries; their conditions need not be identical. Equal entries are not always repeated. Entries after “also recorded” stand apart in the source; their conditions may differ.
# How the values were obtained:
# BuChE = target: T1, BuChE (Rattus norvegicus, UniProt Q9JKC1); assay: BuChE inhibition assay (Ellman method); assay type: biochemical, Sprague–Dawley rat
# T1 construct: The brain and serum of Sprague–Dawley rat was used as the resource of AChE and BuChE, respectively; from tissue; host or cells: Sprague-Dawley rat serum
# Method: (§1) AChE/BuChE activity assays were conducted by Ellman method with light modification. The brain and serum of Sprague–Dawley rat was used as the resource of AChE and BuChE, respectively. Each compound was dissolved in Tween 80 and diluted with water to various concentrations immediately before use. The reaction mixture containing 40 µL AChE/BuChE, 100 µL acetylthiocholine iodide/S-Butyrylthiocholine iodide, 2.76 mL Na2HPO4/NaH2PO4 buffer (pH 8.0, 0.1 mol/L), and 100 µL different concentrations of test compounds were incubated at 30 °C for 25 min. Then the reaction was terminated via adding 100 µL 20% sodium dodecyl sulfate (SDS), then 100 µL 10 mmol/L 5, 5'-Dithiobis-(2-nitrobenzoic acid) (DTNB) was added to generate the yellow anion 5-thio-2-nitro-benzoic acid. The absorbance of each assay mixture was measured at 412 nm by UV spectroscopy. The IC50 values were calculated by Bliss method and expressed as mean ± SD of the replicates.
# AChE [1] = target: T2, AChE (Rattus norvegicus, UniProt P37136); assay: biochemical; assay type: biochemical; conditions: for IC50: rat brain AChE, means ± SD of three experiments; for Selectivity for AChE, IC50 (BuChE)/IC50 (AChE): ratio IC50 (BuChE)/IC50 (AChE)
# T2 construct: The brain and serum of Sprague–Dawley rat was used as the resource of AChE and BuChE, respectively; from tissue; host or cells: Sprague-Dawley rat brain
# Method: as §1
# [2] = Log p measurement by shake flask method; assay type: physicochemical; conditions: octanol / PBS (pH =7.4), triplicate
# Method: Log p, defined as the logarithm of octanol-water partition coefficient is an important parameter to evaluate the lipophilicify of compounds. It can be calculated by determining the concentration of compound in octanol phase and water phase until the partition equilibrium was completed. In present investigation, log p of compounds 4a∼4l was measured by the shake flask method with slight modification, and PBS (pH =7.4) was used as the water phase. The mobile phase was methanol: 0.1% triethylamine (TEA)/80:20 (v/v), at a flow rate of 1.0 mL.min^−1 through a C18 column ([…] ×4.6 mm, 5 µm) at 32 °C with detect wavelength 318 nm. Experiments were conducted in triplicate and log p values were calculated.
# AChE [3] = target: T2, AChE; assay: Kinetic studies of AChE inhibition (Lineweaver–Burk); assay type: biochemical
# Method: as §1, with “replicates. Rivastigmine was used as the control drug.” for “replicates.”
# Kinetic experiment was conducted by a reported method with some modifications. Compound 4l was added into the assay solution and pre-incubated with the enzyme at 30 °C, followed by the addition of 100-µL acetylthiocholine iodide including five concentrations. The assay solution contained 100 µL compound 4l, 100 µL DTNB, 2.76 mL 0.1 mol/L Na2HPO4/NaH2PO4 buffer (pH 8.0). Kinetic profile of AChE was determined by UV spectrophotometer at 412 nm. Additionally, the blank control experiment was conducted with the vehicle to replace compound 4l solution.
# T2 sequence (P37136 32-614): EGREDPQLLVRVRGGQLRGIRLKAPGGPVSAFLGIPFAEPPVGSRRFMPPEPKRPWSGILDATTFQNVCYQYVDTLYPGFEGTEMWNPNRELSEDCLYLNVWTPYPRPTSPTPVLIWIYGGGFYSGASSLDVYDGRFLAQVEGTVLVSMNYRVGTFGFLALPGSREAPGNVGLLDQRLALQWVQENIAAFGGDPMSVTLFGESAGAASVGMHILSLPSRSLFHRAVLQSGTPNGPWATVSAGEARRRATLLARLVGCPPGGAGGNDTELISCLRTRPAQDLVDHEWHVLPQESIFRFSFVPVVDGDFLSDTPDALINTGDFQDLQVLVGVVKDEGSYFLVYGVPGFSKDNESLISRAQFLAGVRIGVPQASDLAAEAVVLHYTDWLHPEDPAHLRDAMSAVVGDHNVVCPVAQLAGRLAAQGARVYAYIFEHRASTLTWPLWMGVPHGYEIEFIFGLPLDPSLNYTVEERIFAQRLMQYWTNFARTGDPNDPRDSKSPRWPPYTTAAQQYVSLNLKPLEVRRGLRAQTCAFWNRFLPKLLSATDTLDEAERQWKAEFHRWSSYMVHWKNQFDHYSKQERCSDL
# T1 sequence (Q9JKC1 24-597): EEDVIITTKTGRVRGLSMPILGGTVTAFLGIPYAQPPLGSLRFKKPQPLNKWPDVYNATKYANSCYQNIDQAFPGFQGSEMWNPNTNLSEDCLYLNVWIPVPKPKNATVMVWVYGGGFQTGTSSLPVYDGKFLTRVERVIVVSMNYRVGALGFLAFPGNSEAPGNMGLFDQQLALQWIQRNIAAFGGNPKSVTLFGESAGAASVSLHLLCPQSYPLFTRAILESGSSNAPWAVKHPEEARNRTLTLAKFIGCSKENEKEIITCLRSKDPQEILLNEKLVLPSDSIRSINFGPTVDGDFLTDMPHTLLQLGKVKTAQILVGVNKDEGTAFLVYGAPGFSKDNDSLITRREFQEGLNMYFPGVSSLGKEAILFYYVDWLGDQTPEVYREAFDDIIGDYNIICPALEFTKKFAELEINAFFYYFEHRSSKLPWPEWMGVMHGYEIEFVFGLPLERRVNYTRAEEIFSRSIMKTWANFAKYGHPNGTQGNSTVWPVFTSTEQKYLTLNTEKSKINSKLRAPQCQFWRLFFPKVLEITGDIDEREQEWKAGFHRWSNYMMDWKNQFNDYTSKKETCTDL
SMILES,IC50 (BuChE),IC50 (AChE [1]),"Selectivity for AChE, IC50 (BuChE)/IC50 (AChE) (AChE [1])",logP [2],other results
"CC(=O)N1N=C(c2ccc(OCCN3CCCCC3)cc2)CC1c1ccc(Cl)cc1 (stereo not shown) [Compound 5a, 1–(5-(4-Chlorophenyl)-3–(4-(2-(piperidin-1-yl)ethoxy)phenyl)-4,5-dihydro-1H-pyrazol-1-yl) ethan-1-one]",97.6 ± 3.78 µM,5.94 ± 0.27 µM,16.4,–,–
"CN(C)CCOc1ccc(C(=O)/C=C/c2cccc(Cl)c2)cc1 [Compound 4b, (E)-3–(3-chlorophenyl)-1–(4-(2-(dimethylamino)ethoxy)phenyl)prop-2-en-1-one]",32.1 ± 7.16 µM,3.76 ± 0.26 µM,8.5,1.83,–
"CCN(CC)CCOc1ccc(C(=O)/C=C/c2ccccc2Cl)cc1 [Compound 4d, (E)-3–(2-chlorophenyl)-1–(4-(2-(diethylamino)ethoxy)phenyl)prop-2-en-1-one]",63.8 ± 9.21 µM,5.42 ± 0.2 µM,11.8,1.63,–
"CCN(CC)CCOc1ccc(C(=O)/C=C/c2cccc(Cl)c2)cc1 [Compound 4e, (E)-3–(3-chlorophenyl)-1–(4-(2-(diethylamino)ethoxy)phenyl)prop-2-en-1-one]",80.2 ± 7.18 µM,5.83 ± 0.42 µM,13.8,1.62,–
"O=C(/C=C/c1ccc(Cl)cc1)c1ccc(O)cc1 [Compound 3c, 4'-Hydroxy-4-chlorochalcone]",> 500 µM,> 500 µM,–,–,–
"O=C(/C=C/c1cccc(Cl)c1)c1ccc(OCCN2CCCCC2)cc1 [Compound 4h, (E)-3–(3-chlorophenyl)-1–(4-(2-(piperidin-1-yl)ethoxy)phenyl)prop-2-en-1-one]",24.5 ± 6.14 µM,1.31 ± 0.17 µM,18.7,1.72,–
"CCN(CC)CCOc1ccc(C(=O)/C=C/c2ccc(Cl)cc2)cc1 [Compound 4f, (E)-3–(4-chlorophenyl)-1–(4-(2-(diethylamino)ethoxy)phenyl)prop-2-en-1-one]",101 ± 17.2 µM,3.78 ± 0.39 µM,26.7,1.69,–
"O=C(/C=C/c1ccccc1Cl)c1ccc(OCCN2CCCCC2)cc1 [Compound 4g, (E)-3–(2-chlorophenyl)-1–(4-(2-(piperidin-1-yl)ethoxy)phenyl)prop-2-en-1-one]",35.6 ± 7.31 µM,1.8 ± 0.48 µM,19.8,1.75,–
"O=C(/C=C/c1ccccc1Cl)c1ccc(OCCN2CCCC2)cc1 [Compound 4j, (E)-3–(2-chlorophenyl)-1–(4-(2-(pyrrolidin-1-yl)ethoxy)phenyl)prop-2-en-1-one]",32.1 ± 5.71 µM,0.81 ± 0.03 µM,39.6,1.85,–
"CC(=O)N1N=C(c2ccc(OCCN3CCCC3)cc2)CC1c1ccc(Cl)cc1 (stereo not shown) [Compound 5d, 1–(5-(4-Chlorophenyl)-3–(4-(2-(pyrrolidin-1-yl)ethoxy)phenyl)-4,5-dihydro-1H-pyrazol-1-yl) ethan-1-one]",108 ± 5.56 µM,2.04 ± 0.26 µM,52.96,–,–
"O=C(/C=C/c1cccc(Cl)c1)c1ccc(OCCN2CCCC2)cc1 [Compound 4k, (E)-3–(3-chlorophenyl)-1–(4-(2-(pyrrolidin-1-yl)ethoxy)phenyl)prop-2-en-1-one]",31.1 ± 3.41 µM,0.28 ± 0.05 µM,110.9,1.81,–
"O=C(/C=C/c1ccc(Cl)cc1)c1ccc(OCCN2CCCCC2)cc1 [Compound 4i, (E)-3–(4-chlorophenyl)-1–(4-(2-(piperidin-1-yl)ethoxy)phenyl)prop-2-en-1-one]",114 ± 26.1 µM,0.91 ± 0.09 µM,125.5,1.79,–
"CC(=O)N1N=C(c2ccc(OCCN3CCCC3)cc2)CC1c1cccc(Cl)c1 (stereo not shown) [Compound 5c, 1–(5-(3-Chlorophenyl)-3–(4-(2-(pyrrolidin-1-yl)ethoxy)phenyl)-4,5-dihydro-1H-pyrazol-1-yl)ethan-1-one]",27.6 ± 2.58 µM,2.41 ± 0.34 µM,11.5,–,–
"O=C(/C=C/c1cccc(Cl)c1)c1ccc(O)cc1 [Compound 3b, 4'-Hydroxy-3-chlorochalcone]",> 500 µM,> 500 µM,–,–,–
"O=C(/C=C/c1ccc(Cl)cc1)c1ccc(OCCN2CCCC2)cc1 [Compound 4l, (E)-3–(4-chlorophenyl)-1–(4-(2-(pyrrolidin-1-yl)ethoxy)phenyl)prop-2-en-1-one]",113 ± 18.2 µM,0.17 ± 0.06 µM,667 and 667.2,1.83,"noncompetitive constant (Ki’) (AChE [3]; AChE, mixed-type inhibition): 2.95 µM; inhibition type (AChE [3]; Lineweaver–Burk analysis, Km increased and Vmax decreased with concentration): mixed-type inhibition; also recorded: mixed-type inhibitor; Ki’ (AChE [3]; Supplement Table 2): 2.95 µM; Vmax (AChE [3]; compound 4l at 0.22 µM): 0.0273 ΔAmin-1; Vmax (AChE [3]; compound 4l at 0.43 µM): 0.0263 ΔAmin-1; Vmax (AChE [3]; compound 4l at […]): 0.0230 ΔAmin-1; Ki (AChE [3]; read-out: competitive inhibition constant (Ki)): 0.38 µM"
"CC(=O)N1N=C(c2ccc(OCCN3CCCC3)cc2)CC1c1ccccc1Cl (stereo not shown) [Compound 5b, 1–(5-(2-Chlorophenyl)-3–(4-(2-(pyrrolidin-1-yl)ethoxy)phenyl)-4,5-dihydro-1H-pyrazol-1-yl) ethan-1-one]",29.9 ± 1.25 µM,6.31 ± 0.16 µM,4.74,–,–
"CN(C)CCOc1ccc(C(=O)/C=C/c2ccccc2Cl)cc1 [Compound 4a, (E)-3–(2-chlorophenyl)-1–(4-(2-(dimethylamino)ethoxy)phenyl)prop-2-en-1-one]",41.1 ± 2.31 µM,2.11 ± 0.38 µM,19.5,1.75,–
"O=C(/C=C/c1ccccc1Cl)c1ccc(O)cc1 [Compound 3a, 4'-Hydroxy-2-chlorochalcone]",> 500 µM,> 500 µM,–,–,–
"CN(C)CCOc1ccc(C(=O)/C=C/c2ccc(Cl)cc2)cc1 [Compound 4c, (E)-3–(4-chlorophenyl)-1–(4-(2-(dimethylamino)ethoxy)phenyl)prop-2-en-1-one]",43.6 ± 6.94 µM,1.55 ± 0.16 µM,28.1,1.61,–
